Assay results from US20040102454A1, “Phenylahistin and the phenylahistin analogs, a new class of anti-tumor compounds” (priority 1998, published 2004).
Several values for one entry are separate records, joined by “and”; a condition that tells them apart may be missing. Equal values may be shown once.

Tests used:
[1] = test system: T. rubrum isolate #1; experiment: Antifungal susceptibility testing, broth dilution (NCCLS M38-A); type: cell-based, Trichophyton rubrum; conditions: dermatophytes
Method: Antifungal susceptibility testing was accomplished according to the methods outlined in the National Committee for Clinical Laboratory Standards, M38-A “Reference Method for Broth Dilution Antifungal Susceptibility Testing of Conidium-Forming Filamentous Fungi; Approved Standard.” This includes testing in RPMI-1640 with glutamine and without bicarbonate, an inoculum size of 0.4-5×10^4, and incubation at 30 or 35° C. for 48 hours. […] Drug concentrations were 0.03-16 μg/ml for the investigational compounds, 0.015-8 μg/ml for itraconazole and griseofulvin.
The minimum lethal concentration (MLC) was determined by plating […] from the MIC concentration and each concentration above the MIC. […] When a MIC was obtained, a minimum fungicidal concentration (MFC) was determined to assess the fungistatic/fungicidal nature of the compound. […] The compound is scored as fungistatic if the cells are able to resume growth and fungicidal if no regrowth is possible because the compound had killed the organisms.

[2] = test system: HL-60 (Mitoxantrone-Sensitive) human acute promyelocytic leukemia cell line; experiment: Drug resistant cell line pair, cytotoxicity; type: cell-based; conditions: HL-60 Sensitive
Text: 2) Human Acute Promyelocytic Leukemia Cell Line Pair: HL-60 (Mitoxantrone-Sensitive) and HL-60/MX-2 (Mitoxantrone-Resistant)
This cell line is considered to have atypical drug resistance properties with altered topoisomerase II catalytic activity without overexpression of P-glycoprotein.

[3] = test system: MCF-7 human breast tumor; experiment: MCF-7 Human Breast Tumor Xenograft Model; type: in vivo, nude mice; conditions: in combination with taxotere; compound Days 1, 2, 3, 4, and 7
Method: Female nude mice (˜20 g) were implanted s.c. with 21-day release estrogen (0.25 mg) pellets 24 hours prior to the s.c. implantation with MCF-7 tumor fragments (harvested from s.c. tumors in nude mice hosts). The study then proceeded as described for the HT-29 model, using taxotere as the standard chemotherapy agent.
In this model unless otherwise noted for the individual study, the novel compound was injected via the intraperitoneal route daily on Days 1-5, inclusive (qd×5); taxotere was administered intravenously on Days 1, 3 and 5 (qod×3).
This study considered the effects of t-butyl-phenylahistin in the MCF-7 human breast tumor xenograft model. The doses of the compound were administered on Days 1, 2, 3, 4, and 7; Taxotere was administered on Days 1, 3 and 7.

[4] = test system: HT-29 Colon (human colon tumor); experiment: Tumor Panel Screen, Resazurin cytotoxicity assay; type: cell-based
Text: (§1) The following cell lines (source in parentheses) were used: HT29 (human colon tumor; ATCC; HTB-38), PC3 (human prostate tumor; ATCC; CRL-1435), MDA-MB-231 (human breast tumor; ATCC; HTB-26), NCI-H292 (human non-small cell lung tumor; ATCC; CRL-1848), OVCAR-3 (human ovarian tumor; ATCC; HTB-161), B16-F10 (murine melanoma; ATCC; CRL-6475) and CCD-27 sk (normal human fibroblast; ATCC; CRL-1475). Cells were maintained at subconfluent densities in their respective culture media.
(§2) Cytotoxicity assays were performed as described above in Example 4, using Resazurin fluorescence as an indicator of cell viability.

[5] = test system: MDA-MB-231 Breast (human breast tumor); experiment: Tumor Panel Screen, Resazurin cytotoxicity assay; type: cell-based
Text: as §1, §2

[6] = test system: PC-3 Prostate (human prostate tumor); experiment: Tumor Panel Screen, Resazurin cytotoxicity assay; type: cell-based
Text: as §1, §2

[7] = test system: NCI-H292 Lung (human non-small cell lung tumor); experiment: Tumor Panel Screen, Resazurin cytotoxicity assay; type: cell-based
Text: as §1, §2

[8] = test system: B16-F10 Melanoma (murine melanoma); experiment: Tumor Panel Screen, Resazurin cytotoxicity assay; type: cell-based
Text: as §1, §2

[9] = test system: CCD-27sk Fibroblast (normal human fibroblast); experiment: Tumor Panel Screen, Resazurin cytotoxicity assay; type: cell-based
Text: as §1, §2

[10] = test system: OVCAR-3 Ovary (human ovarian tumor); experiment: Tumor Panel Screen, Resazurin cytotoxicity assay; type: cell-based
Text: as §1, §2

[11] = test system: HL-60/MX-2 (Mitoxantrone-Resistant) human acute promyelocytic leukemia cell line; experiment: Drug resistant cell line pair, cytotoxicity; type: cell-based; conditions: HL-60 Resistant
Text: HL-60 (Mitoxantrone-Sensitive) and HL-60/MX-2 (Mitoxantrone-Resistant) This cell line is considered to have atypical drug resistance properties with altered topoisomerase II catalytic activity without overexpression of P-glycoprotein.

[12] = test system: tubulin in Human umbilical vein endothelial cells (HuVEC); experiment: Action on microtubule function, staining for α-tubulin; type: cell-based; conditions: 2 μM, thirty minutes exposure
[13] = test system: MES-SA (Taxol Sensitive) human uterine sarcoma tumor cell line; experiment: Drug resistant cell line pair, cytotoxicity; type: cell-based
Text: (§3) MES-SA (Taxol Sensitive) and MES-SA DX (Taxol Resistant). This cell line expresses elevated mdr-1 mRNA and P-glycoprotein (an extrusion pump mechanism). Pretreatment with cyclosporin-A (CsA) blocks P-glycoprotein and reinstates activity in the resistant cell line for those compounds for which the resistance is due to elevated P-glycoprotein.

[14] = test system: MES-SA DX (Taxol Resistant) human uterine sarcoma tumor cell line; experiment: Drug resistant cell line pair, cytotoxicity; type: cell-based; conditions: MES-SA DX Resistant
Text: as §3

[15] = test system: DU-145 human prostate tumor; experiment: DU-145 Human Prostate Tumor Xenograft Model; type: in vivo, nude mice; conditions: alone and in combination with taxotere
Method: Male mice were implanted s.c. by trocar with fragments of DU-145 tumors harvested from s.c. growing tumors in nude male mice hosts. When the tumors reached ˜5 mm×5 mm ( at about 13-17 days) the animals were matched into treatment and control groups. The remainder of the study proceeded as for the HT-29 model, using taxotere as the standard chemotherapy agent.
In this model unless otherwise noted for the individual study, test compound was administered via the intraperitoneal route on Days 1, 3, 5, 8 and 11 (q3d×5); taxotere was administered intravenously on Days 1, 3 and 5 (q2d×3).
The study involved an assessment of t-butyl-phenyalhistin alone and in combination with taxotere.

[16] = test system: HT-29 human colon tumor; experiment: HT-29 Human Colon Tumor Xenograft Model; type: in vivo, nude mice
Method: Animals used were (exceptions are indicated for individual studies): female nude mice (nu/nu) between 5 and 6 weeks of age (˜20 g, Harlan); group size was 9-10 mice per group unless otherwise indicated. The selected novel compound was administered as monotherapy via the intraperitoneal (i.p.) route at the doses indicated for the individual study; for the combination studies the selected reference chemotherapy agents were injected 15-30 min prior to the compound. Vehicles used in these studies were: 12.5% DMSO, 5% Cremaphor and 82.5% peanut oil for the selected novel compounds; (1:3) Polysorbate 80:13% ethanol for taxotere; […] Saline dilutions are used to achieve the injection concentrations used for the reference compounds. Animals were implanted subcutaneously (s.c.) by trocar with fragments of HT-29 tumors harvested from s.c. growing tumors in nude mice hosts. […] CPT-11 was administered intraperitoneally on days 1, 8 and 15 (qw×3).

[17] = test system: Jurkat cells
[18] = test system: Caspase-3 in Jurkat cells; experiment: Activation of the caspase cascade; type: cell-based
Text: Several enzymes in the caspase cascade are activated during apoptosis, including Caspase-3, -8 and-9. The activity of Caspase-3 was monitored in Jurkat cells following treatment with t-butyl-phenylahistin.

[19] = test system: HuVEC monolayer; experiment: HuVEC monolayer permeability to FITC-Dextran; type: cell-based, human
Text: This vascular collapse is preceded by a rapid induction of vascular cell permeability initially to electrolytes and soon after to large molecules. The enhanced permeability of HuVEC cells to a fluorescent-labeled dextran is used as a proxy assay for vascular collapse.

[20] = test system: PARP in Jurkat cells; experiment: Cleavage of poly(ADP-ribose) polymerase (PARP), western blotting; type: cell-based; conditions: 10 hours after exposure
Text: In order to assess the ability of t-butyl-phenylahistin to induce apoptosis in Jurkat cells, cleavage of poly(ADP-ribose) polymerase (PARP) was monitored. PARP is a 116 kDa nuclear protein that is one of the main intracellular targets of Caspase-3. The cleavage of PARP generates a stable 89 kDa product, and this process can be easily monitored by western blotting. Cleavage of PARP by caspases is one of the hallmarks of apoptosis, and as such serves as an excellent marker for this process.

## CC(C)(C)c1[nH]cnc1/C=C1\NC(=O)[C@H](Cc2ccccc2)NC1=O [t-butyl-phenylahistin]
[1]
  potency compared to griseofulvin: at least was equivalent in potency
[2]
  IC50: 0.255 µM
[3]
  effect on estimated tumor growth: significant potentiation of taxotere
[4]
  % Cytotoxicity, Mean: 88%
  IC50: 0.42 µM
[5]
  % Cytotoxicity, Mean: 65.5%
  IC50: 0.387 µM
[6]
  % Cytotoxicity, Mean: 59.5%
  IC50: 0.174 µM
[7]
  % Cytotoxicity, Mean: 65%
  IC50: 0.384 µM
[8]
  % Cytotoxicity, Mean: 74%
  IC50: 0.736 µM
[9]
  % Cytotoxicity, Mean: 45%
  IC50: > 20 µM
[10]
  % Cytotoxicity, Mean: 37%
  IC50: > 20 µM
[11]
  IC50: 0.175 µM
[12]
  microtubule depolymerization: induced microtubule depolymerization
[13]; CsA Pretreat
  IC50: 0.162 µM
[13]; No CsA
  IC50: 0.144 µM and 0.122 µM
[14]; CsA Pretreat
  IC50: 0.622 µM
[14]; No CsA
  IC50: 0.825 µM and 0.694 µM
[15]
  tumor growth inhibition indices (excised tumor weights): marked inhibition of tumor growth
[16]; combination with CPT-11
  Comments: Synergy
[16]; monotherapy 30 mg/kg ip q3dx5, study 2139
  NPI-Compound Result TGI %: No Effect
[16]; study 2139
  Exceed NCI Criterion (TGI 58%): Combination
[16]; t-butyl-phenylahistin 30 mg/kg ip q3dx5 + CPT-11 100 ip qwx3, p < 0.05 vs Control and vs CPT-11 Alone
  Combination Results TGI %: 77.7%
[17]
  IC50: 0.165 µM
[18]
  caspase-3 activation: activated in a dose-dependent manner
[19]
  time to induction of HuVEC monolayer permeability: ≤ 1 h
[19]; FITC-Dextran
  HuVEC monolayer permeability: induced significant HuVEC monolayer permeability

## C=CC(C)(C)c1nc[nH]c1/C=C1\NC(=O)C(Cc2ccccc2)NC1=O (stereo not drawn) [Halimide]
[20]
  cleavage of PARP: active at inducing cleavage of PARP
